Laboratory results published in patent publication US7678884B2, “Biologically active peptide and agent containing the same” (Seikagaku Corporation, priority 2003, dated 2010).
Ends that are not written are not given here.

Experiments:
MC3T3 cells [1] = assay: Cell differentiation of MC3T3 cells (ALP activity); format: cell-based, mouse; settings: for cell differentiation promoting effect (ALP activity) on MC3T3 cells: at confluent state and one week after (FIG. 9, FIG. 10)
Experimental: (§1) As mouse-derived osteoblasts, cells of the MC3T3 cell strain or ST2 cell strain (purchased from Riken Cell Bank) were used. • (iii) Rat Femur Bone Marrow-derived Mesenchymal Stem Cells (BMMSC)
(§2) As an index of cell differentiation, alkaline phosphatase (ALP) activity of cells was determined. Cells were inoculated in a 24-well culture plate at a ratio of 5×10^3 cells/well, added with the peptide (a) at various concentrations and cultured in DMEM or αMEM containing 2% FBS. One week after the time point when the cells reached a confluent state, ALP activity was determined by the following enzymochemical method (Bessey-Lowry method, Bessey O A, Lowry O H and Brock M J, A method for the rapid determination of alkaline phosphatase with five cubic millimeter of serum, J. Biol. Chem., 164:321-329, 1946).
(§3) The cultured cells were washed with PBS and then disrupted in 10 mM Tris-HCl buffer (pH 7.4, 500 μl) for 40 seconds by using an ultrasonic homogenizer (Handy Sonic model UR-20P, Tomy Seiko) and stirred. Then, 25 μl of this sample liquid was added to 125 μl of ALP buffer (0.1 M carbonate buffer, pH 9.8, 6.7 mM p-nitrophenyl phosphate, 2 mM MgCl2) and incubated at 37° C. for 30 minutes. The reaction was terminated by addition of 125 μl of 0.2 N NaOH, and absorbance was measured at 405 nm by using a microplate reader (Model 550, Bio-Rad Laboratories).
Further, the peptides (a) and (b) were similarly examined by using the MC3T3 cells. ALP activity determined when the cells reached a confluent state is shown in FIG. 9, and ALP activity determined one week after the confluent state was attained is shown in FIG. 10. The symbol “cont” in the figures indicates the results for the cells cultured in αMEM containing 2% FBS alone, “PN” indicates the results for the cells cultured in the medium added only with the peptide (a), and “HN” indicates the results for the cells cultured in the medium added only with the peptide (b). Further, “ng” in the figures represents “ng/ml.” […]

ST2 cells = assay: Cell differentiation of ST2 cells (ALP activity); format: cell-based, mouse; settings: for cell differentiation promoting effect on ST2 cells relative to BMP2: at confluent state (FIG. 7), comparison with BMP2; for cell differentiation promoting effect (ALP activity) on ST2 cells: at confluent state, αMEM containing 2% FBS (FIG. 7)
Experimental: as §1, §2, §3
Further, the peptides (a) and (b) and BMP2 were similarly examined by using the ST2 cells and BMMSC cells. The symbol “cont” in the figures indicates the results for the cells cultured in αMEM containing 2% FBS alone, “B” indicates the results for the cells cultured in the medium added only with BMP2, “HN” indicates the results for the cells cultured in the medium added only with the peptide (b), and “PN” indicates the results for the cells cultured in the medium added only with the peptide (a). In the figures, the unit of numerical values shown after “B,” “HN” and “PN” is “ng/ml.”
Further, the peptides (b) and (k) to (n) were similarly examined at a final concentration of 100 ng/ml by using the ST2 cell strain. The symbol “cont” in the figure indicates the results for the cells cultured in DMEM containing 2% FBS alone.

bone loss model = assay: Bone loss model (tibia defect, soft X-ray); format: in vivo, Wistar rats; settings: for bone regeneration at the bone loss site (X-ray): peptide 3 mg/ml with collagen gel (Koken Atelocollagen Implant), versus control and collagen gel groups
Experimental: The following experiment was performed in order to examine action of the peptide of the present invention on a bone loss model. • (i) Preparation of Bone Loss Model Male Wistar rats (8-week old) were systemically anesthetized with an ethyl carbamate solution in a volume of 0.5 ml per 100 g of body weight, then the skin of the right and left hind leg tibiae and the periostium of tibiae were incised, and the periostium were reflected to expose the tibiae. Then, a hole having a diameter of 2 mm was perforated in the cortical bone at the same site by using a round bur under pouring physiological saline to form a defect reaching the medullary cavity (diameter: 2 mm, depth: 3 mm). • (ii) Test Method The bone loss site was filled with the peptide (a) (concentration: 0.3 mg/ml or 3 mg/ml) dissolved in a sodium hyaluronate preparation (trade name: ARTZ (registered trade mark), weight average molecular weight of sodium hyaluronate: about 900,000, concentration of sodium hyaluronate: 1%), and the periost and the skin were repositioned and sutured. Healing conditions of the animals 3 weeks after the operation in a group of animals filled with the peptide (peptide group), a group of animals applied with 1% PBS solution of sodium hyaluronate as a vehicle alone (HA group) and a group of animals applied with no substance before the suture of the skin periosteal flap (control group) were examined by using X-ray. • (iii) Results In a similar manner, experiments were performed with collagen gel (trade name: Koken Atelocollagen Implant, Koken) and the peptides (a) and (b) (concentration: 3 mg/ml).

MC3T3 cells [2] = assay: Cell growth of MC3T3 cells (cell number); format: cell-based, mouse; settings: αMEM containing 2% FBS; on Day 6; versus control (FIG. 3)
Experimental: as §1
The PDL cells prepared in (1) were inoculated on a 24-well culture plate (FALCON) at a ratio of 5×10^3 cells/well. After the inoculation, the cells were cultured in DMEM containing 10% FBS for 1 day. On Day 0, next day of the inoculation, the peptide (a) prepared above was added to a culture medium (DMEM containing 2% FBS) at various concentrations. On Days 4 and 6, the cells were separated and dispersed by using PBS containing 0.08% trypsin and 0.04% ethylenediaminetetraacetic acid (EDTA), and cell number was counted by using a Coulter counter (COULTER Z1, Coulter Electronics).
Further, the peptides (a) and (b) were similarly examined for cell growth promoting effect on the MC3T3 cells. […] The symbol “cont” in FIG. 3 indicates the results for the cells cultured in αMEM containing 2% FBS alone, “B” indicates the results for the cells cultured in the medium added only with BMP2 (bone morphogenetic protein 2, Yamanouchi Pharmaceutical Co., Ltd.), “HN” indicates the results for the cells cultured in the medium added only with the peptide (b), and “PN” indicates the results for the cells cultured in the medium added with only the peptide (a). […]

Row | Sequence | cell differentiation promoting effect (ALP activity) on MC3T3 cells (MC3T3 cells [1]) | cell differentiation promoting effect on ST2 cells relative to BMP2 (ST2 cells) | cell differentiation promoting effect (ALP activity) on ST2 cells (ST2 cells) | bone regeneration at the bone loss site (X-ray) (bone loss model) | bone regeneration at the bone loss site (soft X-ray images) (bone loss model; peptide (a) 0.3 mg/ml or 3 mg/ml in 1% sodium hyaluronate preparation (ARTZ), 3 weeks after operation, versus control and HA groups) | MC3T3 cell number (cell growth promoting effect) (MC3T3 cells [2]) | cell differentiation promoting effect (ALP activity) on the MC3T3 cell strain (MC3T3 cells [1]; final concentration of 100 ng/ml, versus control (FIG. 12))
1 | VPAFPRQPGTPGVASL [Peptide (a)] | significant cell differentiation promoting effect | comparable to or higher than that of BMP2 | significant cell differentiation promoting effect | bone had been regenerated to such an extent that bone loss could hardly be recognized | bone had been regenerated to such an extent that bone loss could hardly be recognized | significantly increased | –
2 | VPFFPQQSGTPGMASL [Peptide (b), peptide designed on the portion of human-derived sheathlin protein corresponding to (a)] | significant cell differentiation promoting effect | comparable to or higher than that of BMP2 | significant cell differentiation promoting effect | bone had been regenerated to such an extent that bone loss could hardly be recognized | – | significantly increased | high cell differentiation promoting effect
